One molecule from patent US12221422B2, “Compounds and their use for the treatment of alpha1-antitrypsin deficiency” (CENTESSA PHARMACEUTICALS (UK) LIMITED, priority 2018, dated 2025) can be followed below.

One data set can be described thus: Pharmacokinetics in rats. In kind it is in vivo. Particulars: rat, whole blood, Sprague Dawley rats. As for the experimental part: Compounds were administered to Sprague Dawley rats intravenously (2 mg/kg) or orally (10 mg/kg) by gavage. Whole blood diluted with water was prepared from these dosed animals over a time course up to 24 hours post dose to allow blood concentrations of drug to be measured by UPLC-MS/MS.

The subject of data set [1] is panel of enzymes, ion channels and receptors. As to the kind of experiment: DiscoverX Safety47 panel. Particulars: at 10 μM. The procedure:
Compounds of the invention were tested against the DiscoverX Safety47™ panel. […] No target was inhibited by more than 25% at this concentration.

The subject of another data set is TK6 cells. The data set is described as follows: In vitro micronucleus assay. The arrangement: relative increase in cell count (RICC): dose or concentration left out as unconfirmed. In kind it is cell-based. The following applies: for relative increase in cell count (RICC): vs concurrent negative control. From the text: The purpose of the in vitro micronucleus assay is to assess the ability of the test item to cause chromosome or spindle damage, or to interfere with the cell cycle, in ways which lead to the formation of micronuclei in the cytoplasm of TK6 cells. Chromosome defects are recognised as being the basis of a number of human genetic diseases. Micronuclei (MN) are the result of chromosome fragments or whole chromosomes remaining in the cytoplasm and not being incorporated into the nuclei of newly formed cells. These arise from damage to chromosomes leading to acentric fragments which cannot attach to the mitotic spindle; damage to the spindle apparatus preventing a chromosome from attaching to it or other interference with cell division. Assays were performed in the presence and absence of an exogenous mammalian oxidative metabolising system (S-9 mix, a liver post-mitochondrial fraction derived from the livers of Aroclor 1254 treated rats), to mimic mammalian metabolism. Cells were exposed to the test item for 3 hours and sampled 44 hours after the beginning of treatment. As a number of chemicals have been reported as only exerting positive effects following prolonged treatment, a continuous treatment of 27 hours in the absence of S-9 mix was also included. This was equivalent to 1.5 to 2.0 times the average generation time of cultured cells used in the assay. The test methodology was based on established procedures for in vitro micronucleus testing.
N,N-dimethyl-4-((6-oxopyrimidin-1(6H)-yl)methyl)benzamide was tested up to the regulatory maximum dose level of 1 mM […] in all treatments.

Another data set has as its target human Z A1AT (Homo sapiens, UniProt P01009, E366K). As to the kind of experiment: Trypsin complex formation by human Z A1AT purified from plasma of treated huZ mice (Western blot). In kind it is biochemical, huZ mouse. The arrangement: from tissue; host or cells: huZ (PiZZ) transgenic mice, line Z11.03, C57Bl/6 background; made in liver, measured in plasma. The following applies: Z A1AT purified from plasma of huZ mice treated at 200 mg/kg twice a day by oral gavage for 10 days. As for the experimental part: The aim of the experiment was to purify human Z A1AT from three HuZ mice which had been treated with compound N,N-dimethyl-4-((6-oxopyrimidin-1(6H)-yl)methyl)benzamide (22.1e, 24.1a, 24.1b), then test the activity of the A1AT by reaction with increasing amounts of trypsin. Reaction of A1AT with the trypsin was analysed by western blot, probing with an anti-human A1AT antibody. A control plasma from a wild type mouse treated with the same compound (15.5b) was also included in the study.
Mice were treated with N,N-dimethyl-4-((6-oxopyrimidin-[…]-yl)methyl)benzamide at 200 mg/kg twice a day by oral gavage for 10 consecutive days. Mice had access to food (standard mouse chow, SAFE diets) and water ad libitum. On study day 10, each mouse was dosed 3.5-4.5 hours prior to terminal procedures. […]
100 μl of mouse plasma was diluted to 300 μl with 20 mM Tris, 150 mM NaCl, 5 mM EDTA, pH 7.4 (reaction and wash buffer) prior to purification. […] Residual A1AT in the plasma and plasma supernatant was quantified using a human serpinA1 ELISA (Human Serpin A1/α1-antitrypsin duo set ELISA, R& D Systems, DY1268) to confirm depletion of human A1AT. The concentration of the eluted fractions were also measured. The amount of eluted A1AT was determined by measuring by A280 using an extinction coefficient of 0.45. […]
A general note: In western blotting, separated proteins are transferred to a membrane and probed.

human Z A1AT, sequence (P01009 25-418 E366K): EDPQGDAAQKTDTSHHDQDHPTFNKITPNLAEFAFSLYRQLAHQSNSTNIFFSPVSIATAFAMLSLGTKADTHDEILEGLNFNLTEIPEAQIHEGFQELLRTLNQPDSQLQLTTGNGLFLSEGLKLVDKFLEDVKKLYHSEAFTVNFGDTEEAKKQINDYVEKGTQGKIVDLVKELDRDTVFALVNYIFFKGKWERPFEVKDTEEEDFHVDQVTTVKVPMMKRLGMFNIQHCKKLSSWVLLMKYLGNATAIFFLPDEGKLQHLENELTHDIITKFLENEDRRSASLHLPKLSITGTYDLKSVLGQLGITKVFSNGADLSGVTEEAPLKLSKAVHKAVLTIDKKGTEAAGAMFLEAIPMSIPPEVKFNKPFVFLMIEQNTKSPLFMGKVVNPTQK

As for `CN(C)C(=O)c1ccc(Cn2cnccc2=O)cc1` [N,N-dimethyl-4-((6-oxopyrimidin-1(6H)-yl)methyl)benzamide], the half-life in the data set “Pharmacokinetics in rats” (iv 2 mg/kg or oral 10 mg/kg, read-out: Half-life in blood (t1/2)) stood at 55 min. For the same molecule, the clearance in the data set “Pharmacokinetics in rats” (iv 2 mg/kg or oral 10 mg/kg, read-out: Observed clearance) came out at 10.6 mL/min/kg. Also, the Vd in “Pharmacokinetics in rats” (iv 2 mg/kg or oral 10 mg/kg, read-out: Volume of distribution (Vz)) was determined as 0.84 L/kg. Also, the bioavailability in “Pharmacokinetics in rats” (oral 10 mg/kg vs iv 2 mg/kg, read-out: Oral Bioavailability (F)) worked out at 104%. In the data set “Pharmacokinetics in rats” (oral 10 mg/kg, blood), this molecule registered a Cmax of 5330 ng/mL. Also, in the data set “Pharmacokinetics in rats” (oral 10 mg/kg, blood, read-out: Oral AUCINF), the AUC(0-inf) was found to be 16500 ng·h/mL. In data set [1], the “inhibition of any target of the Safety47 panel” value is at most 25%. For the same molecule, the “relative increase in cell count (RICC)” value in the data set with TK6 cells (absence of S-9 mix, 3 hour treatment) turned out to be 98%; in the data set on TK6 cells (absence of S-9 mix, 27 hour treatment) it was 74%; with TK6 cells (presence of S-9 mix, 3 hour treatment), 105%. In addition, the clastogenicity / aneugenicity entry with TK6 cells (presence or absence of S 9 mix) is “neither clastogenic nor aneugenic”. For the same molecule, the cytotoxicity result with TK6 cells (up to 1 mM, 27 hour treatment only) was “only slight cytotoxicity”. For the same molecule, the “percentage MN (% MN)” value in the data set with TK6 cells (with S-9 mix 3 hour, without S-9 mix 3 hour or 27 hour) is recorded as “no statistically significant increases”. In addition, the “activity of eluted human Z A1AT (complex formation with trypsin)” value on human Z A1AT was “native and fully active”.

As a reminder, the Cmax is the maximum level reached in the sampled fluid or tissue.
